Data from US9346782B2, “Alkyl linked quinolinyl modulators of RORγt” (Janssen Pharmaceutica NV, priority 2013, dated 2016).
Counter-ions that a name gives are not always drawn.

Assays:
human RORγt LBD = human RORγt LBD (Homo sapiens (Human), UniProt P51449); experiment: RORγt Reporter Assay; assay type: cell-based; details: for IC50 / RORγt reporter Assay, % inhibition @ 6 μM: HEK293T cells; for inhibition at 6 µM: HEK-293T, read-out: RORγt reporter Assay, % inhibition @ 6 μM, HEK293T cells, 6 μM
From the text: A reporter assay was used to test functional activity of RORγt modulatory compounds on transcriptional activation driven by the RORγt LBD. Cells used in the assay were co-transfected with two constructs. The first construct, pBIND-RORγt LBD, contained the wild type human RORγt LBD fused to the DNA binding domain of the GAL4 protein. The second construct, pGL4.31 (Promega Cat no. C935A), contained multiple GAL4 responsive DNA elements upstream of firefly luciferase. […] The mutant construct was called pBIND-RORγt-AF2.
The pBIND vector contains the GAL4 DNA Binding Domain (GAL4 DBD) and the renilla luciferase gene under control of the SV40 promoter. Renilla luciferase expression serves as a control for transfection efficiency and cell viability.
The reporter assay was performed by transiently transfecting HEK293T cells with 5 μg of pBIND-RORγt LBD or pBIND-RORγt LBD-AF2 and 5 μg pGL4.31 (Promega Cat no. C935A) using Fugene 6 (Invitrogen Cat no. E2691) at a 1:6 ratio of DNA:Fugene 6 in a T-75 flask in which cells were at least 80% confluent. Twenty four hours after bulk transfection, cells were plated into 96-well plates at 50,000 cells/well in phenol-red free DMEM containing 5% Lipid Reduced FCS and Pen/Strep. Six hours after plating, cells were treated with compounds for 24 hours. Media was removed and cells were lysed with 50 μL 1× Glo Lysis Buffer (Promega). Dual Glo Luciferase Reagent (50 μL/well) was then added and firefly luciferase luminescence was read on an Envision after a ten minute incubation. Finally, Stop and Glo reagent (50 μL/well) was added and renilla luciferase luminescence was read on an Envision after a ten minute incubation. To calculate the effect of compounds on RORγt activity, the ratio of firefly to renilla luciferase was determined and plotted against compound concentration. Agonist compounds increase RORγt-driven luciferase expression, and antagonist or inverse agonist compounds decrease luciferase expression.

[1] = system: IL-17 production by CD4 T cells; experiment: Human Th17 Assay; assay type: cell-based; details: Homo sapiens, 72 h, 3 days
From the text: The human Th17 assay tests the effect of RORγt modulatory compounds on IL-17 production by CD4 T cells under conditions which favor Th17 differentiation. Total CD4^+ T cells were isolated from the peripheral blood mononuclear cells (PBMC) of healthy donors using a CD4^+ T cell isolation kit II, following the manufacturer's instructions (Miltenyi Biotec). Cells were resuspended in a medium of RPMI-1640 supplemented with 10% fetal bovine serum, penicillin, streptomycin, glutamate, and β-mercaptoethanol and were added to 96-well plates at 1.5×10^5 per 100 μL per well. 50 μL of compound at titrated concentrations in DMSO were added into each well at final DMSO concentration at 0.2%. Cells were incubated for 1 hour, then 50 μL of Th17 cell differentiation medium was added to each well. The final concentrations of antibodies and cytokines (R&D Systems) in differentiation medium were: 3×10^6/mL anti-CD3/CD28 beads (prepared using human T cell activation/expansion kit, Miltenyi Biotec), 10 μg/mL anti-IL4, 10 μg/mL anti-IFNγ, 10 ng/mL IL1β, 10 ng/mL IL23, 50 ng/mL IL6, 3 ng/mL TGFβ and 20 U/mL IL2. Cells were cultured at 37° C. and 5% CO2 for 3 days. Supernatants were collected and the accumulated IL-17 in culture was measured by using MULTI-SPOT® Cytokine Plate following manufacture's instruction (Meso Scale Discovery). The plate was read using Sector Imager 6000, and IL-17 concentration was extrapolated from the standard curve. The IC50s were determined by GraphPad.

Chain of human RORγt LBD (P51449 258-518): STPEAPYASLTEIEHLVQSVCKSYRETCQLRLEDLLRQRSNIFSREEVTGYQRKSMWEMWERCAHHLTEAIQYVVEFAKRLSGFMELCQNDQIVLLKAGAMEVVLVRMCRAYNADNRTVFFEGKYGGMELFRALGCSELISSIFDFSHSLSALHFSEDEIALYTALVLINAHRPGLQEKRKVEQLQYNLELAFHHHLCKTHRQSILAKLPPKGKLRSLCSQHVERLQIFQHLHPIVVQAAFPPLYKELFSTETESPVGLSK

Structure (SMILES) | IC50 (human RORγt LBD) [µM] | inhibition at 6 µM (human RORγt LBD) [%] | RORγt reporter Assay, % inhibition @ 6 μM (human RORγt LBD) [%] | IC50 ([1]; CD4+ T) [µM] | IC50 [1] [µM]
C#CC(O)(c1ccc2nc(OC)c(Cc3ccc(C(F)(F)F)cc3)c(Cl)c2c1)C1CN(C(C)=O)C1 (single isomer, unassigned) [Example 7b, 1-(3-(1-(4-chloro-2-methoxy-3-(4-(trifluoromethyl)benzyl)quinolin-6-yl)-1-hydroxyprop-2-yn-1-yl)azetidin-1-yl)ethanone] | 0.36 | 97 | – | – | –
C#CC(O)(c1ccc2nc(OC)c(Cc3ccc(C(F)(F)F)cc3)c(Cl)c2c1)C1CN(C(C)=O)C1 (single isomer, unassigned) [Example 7c, 1-(3-(1-(4-chloro-2-methoxy-3-(4-(trifluoromethyl)benzyl)quinolin-6-yl)-1-hydroxyprop-2-yn-1-yl)azetidin-1-yl)ethanone] | 0.098 | – | 94 | 0.32 | –
COc1nc2ccc(C(C)(O)c3oc(C)nc3C)cc2c(Cl)c1Cc1ccc(C(F)(F)F)cc1 (single isomer, unassigned) [Example 10a, 1-(4-Chloro-2-methoxy-3-(4-(trifluoromethyl)benzyl)quinolin-6-yl)-1-(2,4-dimethyloxazol-5-yl)ethanol] | 0.25 | 101 | – | – | –
COc1nc2ccc(C(C)(O)c3oc(C)nc3C)cc2c(Cl)c1Cc1ccc(C(F)(F)F)cc1 (single isomer, unassigned) [Example 10b, 1-(4-Chloro-2-methoxy-3-(4-(trifluoromethyl)benzyl)quinolin-6-yl)-1-(2,4-dimethyloxazol-5-yl)ethanol] | 0.26 | – | 96 | 0.64 | –
COc1nc2ccc(C(C)(O)c3oc(C)nc3C)cc2c(Cl)c1Cc1ccc(C(F)(F)F)cc1 (single isomer, unassigned) [Example 10c, 1-(4-Chloro-2-methoxy-3-(4-(trifluoromethyl)benzyl)quinolin-6-yl)-1-(2,4-dimethyloxazol-5-yl)ethanol] | 0.33 | 95 | – | 0.55 | –
CCCCC(O)(c1ccc2nc(Cl)c(-c3ccccc3)c(Cl)c2c1)c1cc(C)no1 (stereo not shown) [Example 1, 1-(2,4-Dichloro-3-phenylquinolin-6-yl)-1-(3-methylisoxazol-5-yl)pentan-1-ol.TFA] | – | – | – | – | ~3
CCC(O)(c1ccc2nc(Cl)c(-c3ccccc3)c(Cl)c2c1)c1cc(C)no1 (stereo not shown) [Example 2, 1-(2,4-Dichloro-3-phenylquinolin-6-yl)-1-(3-methylisoxazol-5-yl)propan-1-ol.TFA] | – | – | – | – | ~6
Cn1cncc1C(O)(c1ccc2nc(Cl)c(-c3ccccc3)c(Cl)c2c1)C1CC1 (stereo not shown) [Example 3, Cyclopropyl(2,4-dichloro-3-phenylquinolin-6-yl)(1-methyl-1H-imidazol-5-yl)methanol] | > 6 | 56 | – | – | –
CCCCC(O)(c1ccc2nc(Cl)c(-c3ccccc3)c(Cl)c2c1)c1cncn1C (stereo not shown) [Example 4, 1-(2,4-Dichloro-3-phenylquinolin-6-yl)-1-(1-methyl-1H-imidazol-5-yl)pentan-1-ol.TFA] | 1.5 | 114 | – | – | –
CC(C)C(O)(c1ccc2nc(Cl)c(-c3ccccc3)c(Cl)c2c1)c1cncn1C (stereo not shown) [Example 5, 1-(2,4-Dichloro-3-phenylquinolin-6-yl)-2-methyl-1-(1-methyl-1H-imidazol-5-yl)propan-1-ol] | 1.3 | 118 | – | – | –
CCC(O)(c1ccc2nc(OC)c(Cc3ccc(S(C)(=O)=O)cc3)c(Cl)c2c1)c1cncn1C (stereo not shown) [Example 6, 1-(4-Chloro-2-methoxy-3-(4-(methylsulfonyl)benzyl)quinolin-6-yl)-1-(1-methyl-1H-imidazol-5-yl)propan-1-ol] | 1.7 | 76 | – | – | –
C#CC(O)(c1ccc2nc(OC)c(Cc3ccc(C(F)(F)F)cc3)c(Cl)c2c1)C1CN(C(C)=O)C1 (stereo not shown) [Example 7a, 1-(3-(1-(4-Chloro-2-methoxy-3-(4-(trifluoromethyl)benzyl)quinolin-6-yl)-1-hydroxyprop-2-yn-1-yl)azetidin-1-yl)ethanone] | 0.23 | 95 | – | – | –
C#CC(O)(c1ccc2nc(OC)c(Cc3ccc(C(F)(F)F)cc3)c(Cl)c2c1)C1CN(C(=O)OC(C)(C)C)C1 (stereo not shown) [Example 8, tert-Butyl-3-(1-(4-chloro-2-methoxy-3-(4-(trifluoromethyl)benzyl)quinolin-6-yl)-1-hydroxyprop-2-yn-1-yl)azetidine-1-carboxylate] | 4 | 71 | – | – | –
Cc1nc(C)c(C(O)(c2ccc3nc(Cl)c(-c4ccccc4)c(Cl)c3c2)C(C)C)s1 (stereo not shown) [Example 15, 1-(2,4-Dichloro-3-phenylquinolin-6-yl)-1-(2,4-dimethylthiazol-5-yl)-2-methylpropan-1-ol] | ~0.5 | 99 | – | – | –

More lines, main results first:

IC50 (human RORγt LBD) [µM] | inhibition at 6 µM (human RORγt LBD) [%] | RORγt reporter Assay, % inhibition @ 6 μM (human RORγt LBD) [%] | Structure (SMILES) | IC50 ([1]; CD4+ T) [µM] | IC50 [1] [µM]
1.3 | 89 | – | COc1nc2ccc(C(C)(O)c3cncn3C)cc2c(Cl)c1Cc1ccc(C(F)(F)F)cc1 (single isomer, unassigned) [Example 9b, 1-(4-Chloro-2-methoxy-3-(4-(trifluoromethyl)benzyl)quinolin-6-yl)-1-(1-methyl-1H-imidazol-5-yl)ethanol] | – | –
0.18 | – | 98 | COc1nc2ccc(C(C)(O)c3cncn3C)cc2c(Cl)c1Cc1ccc(C(F)(F)F)cc1 (single isomer, unassigned) [Example 9c, 1-(4-Chloro-2-methoxy-3-(4-(trifluoromethyl)benzyl)quinolin-6-yl)-1-(1-methyl-1H-imidazol-5-yl)ethanol] | 0.28 | –
0.28 | 98 | – | COc1nc2ccc(C(C)(O)c3cncn3C)cc2c(Cl)c1Cc1ccc(C(F)(F)F)cc1 (stereo not shown) [Example 9a, 1-(4-Chloro-2-methoxy-3-(4-(trifluoromethyl)benzyl)quinolin-6-yl)-1-(1-methyl-1H-imidazol-5-yl)ethanol] | – | –
0.11 | 102 | – | COc1nc2ccc(C(C)(O)c3cnnn3C)cc2c(Cl)c1Cc1ccc(C(F)(F)F)cc1 (stereo not shown) [Example 11a, 1-(4-Chloro-2-methoxy-3-(4-(trifluoromethyl)benzyl)quinolin-6-yl)-1-(1-methyl-1H-1,2,3-triazol-5-yl)ethanol] | – | –
0.37 | 99 | – | COc1nc2ccc(C(C)(O)c3cnc(C)n3C)cc2c(Cl)c1Cc1ccc(C(F)(F)F)cc1 (stereo not shown) [Example 12a, 1-(4-Chloro-2-methoxy-3-(4-(trifluoromethyl)benzyl)quinolin-6-yl)-1-(1,2-dimethyl-1H-imidazol-5-yl)ethanol] | – | –
0.052 | 103 | – | COc1nc2ccc(C(C)(O)c3ccc(C)nc3C)cc2c(Cl)c1Cc1ccc(C(F)(F)F)cc1 (stereo not shown) [Example 13a, 1-(4-Chloro-2-methoxy-3-(4-(trifluoromethyl)benzyl)quinolin-6-yl)-1-(2,6-dimethylpyridin-3-yl)ethanol] | – | –
0.21 | 81 | – | C#CC(O)(c1ccc2nc(OC)c(Cc3ccc(C(F)(F)F)cc3)c(Cl)c2c1)c1cnc(C)n1C (stereo not shown) [Example 14a, 1-(4-Chloro-2-methoxy-3-(4-(trifluoromethyl)benzyl)quinolin-6-yl)-1-(1,2-dimethyl-1H-imidazol-5-yl)prop-2-yn-1-ol] | – | –
0.5 | 98 | – | CCC(O)(c1ccc2nc(OC)c(Cc3ccc(C(F)(F)F)cc3)c(Cl)c2c1)C1CN(C(=O)OC(C)(C)C)C1 (stereo not shown) [Example 17, tert-Butyl-3-(1-(4-chloro-2-methoxy-3-(4-(trifluoromethyl)benzyl)quinolin-6-yl)-1-hydroxypropyl)azetidine-1-carboxylate] | – | –
